Test results published in patent US9777037B2, “Neurosteroid compounds” (BIONATURE E. A. LTD., priority 2007, dated 2017).

Experiments:
[1] = tested on: Neural-crest derived PC12 cells; experiment: APOPercentage apoptosis assay, serum-deprivation induced apoptosis of PC12 cells; format: cell-based, rat; settings: Rattus norvegicus, PC-12, absence of serum 12 hours, ApoPercentage assay (FIG. 2), read-out: IC50 of anti-apoptotic, cytoprotective effect
Procedure: Neural-crest derived PC12 cells were maintained in culture at 5% CO2, at 37° C., in RPMI 1640 medium containing 2 mM L-glutamine, 15 mM HEPES, 100 units/ml penicillin, 0.1 mg/ml streptomycin, 10% horse serum, and 5% foetal calf serum. Serum free medium was supplemented with 1% bovine serum albumin (BSA). Different steroids, used at various concentrations, were initially diluted in ethanol. The final concentration of ethanol in each well, including controls was 0.01%. Conjugate DHEA-BSA was initially diluted in Phosphate Buffer Saline (PBS).
Cells were cultured in the absence of serum for 12 hours, supplemented with DHEA and various synthetic spiro neurosteroids at 10 nM. Cell apoptosis was quantitated with two different methods: The APOPercentage Apoptosis Assay (Biocolor Ltd., Belfast, N. Ireland) was used to quantify apoptosis, according to the manufacturer's instructions. Apoptosis was quantified following cell lysis by measuring the dye incorporated in apoptotic cells at 550 nm (reference filter 620 nm) using a colour filter microplate colorimeter (Dynatech MicroElisa reader, Chantilly, Va.) (see FIGS. 1 and 2). FACS Analysis: FACS analysis of apoptotic cells was performed according to our protocol (Proc Natl Acad Sci USA 101,8209 (2004)). Flow cytometry was performed with FACScan (Becton Dickinson, Heidelberg, Germany) and the results were analysed with the FACScan and Cell Quest softwares (see FIG. 3).

[2] = tested on: DHEA specific membrane receptors; experiment: [3H]DHEA competition binding on isolated PC12 cell membranes; set-up: species or system rat
Procedure: PC12 rat sympathoadrenal cells were cultured in 225 cm^2 flasks and, after washing twice with PBS, they were detached from the flasks by vigorous shaking. After a centrifugation at 1500 g, they were homogenized by sonication, in a 50 mM Tris-HCl buffer pH 7.4 at 4° C., containing freshly added protease inhibitors (1 mM PMSF and 1 μg/ml aprotinin). Unbroken cells were removed by centrifugation at 1500 g (10 min at 4° C.), and membranes were collected by centrifuging at 102,000 g for 1 hr at 4° C. Membranes were washed once with Tris-HCl, briefly acidified at 4° C. (for 3 min) with 50 mM glycine (pH 5.0), and re-suspended in the same buffer. Protein content was assayed by the method of Bradford, using reagents from Bio-Rad (Hercules, Calif.). Membranes (at a final concentration of 2 mg/ml) were incubated with 5 nM [^3H]DHEA, in the absence (to determine the total binding) or presence of unlabeled neurosteroids and their synthetic spiro analogs, at concentrations varying from 10^−12 to 10^−6 M and at a final volume of 100 μl, in Tris-HCl buffer (50 mM, pH 7.4). Following a […] incubation in a water bath, at 37° C., membranes were collected on GF/B filters, prewet in 0.5% PEI solution at 4° C. The filters were washed three times with ice-cold Tris-HCl, dried, supplemented with scintillation medium (Sigma Hellas, Athens, Greece) and counted in a β-scintillation counter (Perkin Elmer, Foster City, Calif.) with 60% efficiency for Tritium.

[3] = tested on: MCF-7 cells; experiment: MCF-7 cell growth (MTT), estrogen agonism/antagonism; format: cell-based, human
From the text: (§1) Treatment of postmenopausal syndromes with 17β-estradiol (E2) is associated with a higher risk of developing breast and/or endometrial cancer (Arch Intern Med. 166, 1027 (2006)). E2 stimulation of the proliferation of cancer cells is driven by estrogen receptor alpha (ERα) (Mol. Endocrinol. 13, 969 (1999)). Since BNN-50, BNN-93 and BNN-124 may form two hydrogen bonds with an O—O distance of 10.9-12.5 Å and thus may fit the ERα binding cavity (Chem. Biol. 11, 397 (2004)), it was imperative to examine the estrogen agonism/antagonism properties of these neurosteroids using human adenocarcinoma cells from breast (MCF-7 cells) and uterus (Ishikawa cells) as reporters. […] Differences between control and neurosteroid-treated cells were assessed using one-way ANOVA. […]
(§2) To determine neurosteroid effects on the growth of MCF-7 human mammary (from ATCC) and Ishikawa endometrial adenocarcinoma cells (from ECACC), the cells were cultured at 37° C. in Dulbecco's Minimal Essential Medium (DMEM) supplemented with 10% Fetal Bovine Serum (FBS, from Biochrom) in 5% CO2 and subcultured using a trypsin 0.25%-EDTA 0.02% solution. Neurosteroid effects on the growth of the cells were assessed using MTT [3-(4,5-dimethylthiazol-2-yl)-2,5-diphenyltetrazolium bromide] and standard methodology (Chem. Biol. 11, 397 (2004)). […]

[4] = tested on: Ishikawa cells; experiment: Ishikawa cell growth (MTT), estrogen agonism/antagonism; format: cell-based, human
From the text: as §1, §2

C[C@]12CC[C@H](O)CC1=CCC1C2CC[C@@]2(C)C1CC[C@@]21CO1 (stereo partly drawn) [BNN-50, 17β-spiro-[5-androsten-17,2′-oxiran]-3β-ol]
IC50 [1]: 0.088 nM | displacement of specific [3H]DHEA binding ([2]; at 1 μM, PC12 cell membranes): approximately 60% | Kd ([2]; isolated PC12 cell membranes, 5 nM [3H]DHEA (FIG. 5)): 0.016 nM | E2 agonism (at 1 uM), MCF-7 cell growth [3]: non-significant | E2 antagonism (at 1 uM), MCF-7 cell growth ([3]; against E2 at 0.1 nM): non-significant | E2 agonism (at 1 uM), Ishikawa cell growth [4]: non-significant | E2 antagonism (at 1 uM), Ishikawa cell growth ([4]; against E2 at 0.1 nM): non-significant
